Experimental data: paper PMC12153338, “Resistance to oxyimino-cephalosporins conferred by an alternative mechanism of hydrolysis by the Acinetobacter-derived cephalosporinase-33 (ADC-33), a class C β-lactamase present in carbapenem-resistant Acinetobacter baumannii (CRAb)” (mBio, 2025)
≈ marks a conversion by molar mass, not a printed value.

Assays:
[1] = test system: ADC-7 in DH10B Escherichia coli; test: MIC by broth microdilution, ADC-7 in DH10B E. coli; type: cell-based; settings: DH10B E. coli expressing ADC-7 (non-Adup) from pBCSK−, FDC in iron-depleted cation-adjusted MH broth, mode of triplicate
Protocol: (§1) Susceptibility testing to standard antibiotics was performed by broth microdilution according to 2024 Clinical and Laboratory Standards Institute (CLSI) guidelines ([38]). MICs for FDC were done in iron-depleted cation-adjusted Mueller-Hinton (MH) broth according to CLSI methods. All MICs were interpreted according to the 2024 CLSI guidelines ([38]). MICs are done in triplicate, and the mode MIC value is reported.
(§2) blaADC-7 pBCSK− was cloned and expressed in E. coli DH10B cells as previously described for MIC determinations ([3]). The pBCSK-non-inducible phagemid vector has a chloramphenicol resistance gene used to aid selection. All other blaADC variants were synthesized by GenScript according to the blaADC-7 pBCSK− strategy, cloning into the XbaI/BamHI sites of the pBCSK− vector ([5]).

[2] = test system: ADC-73 in DH10B Escherichia coli; test: MIC by broth microdilution, ADC-73 in DH10B E. coli; type: cell-based; settings: DH10B E. coli expressing ADC-73 (non-Adup) from pBCSK−, FDC in iron-depleted cation-adjusted MH broth, mode of triplicate
Protocol: as §1, §2

[3] = test system: ADC-143 in DH10B Escherichia coli; test: MIC by broth microdilution, ADC-143 in DH10B E. coli; type: cell-based; settings: DH10B E. coli expressing ADC-143 (non-Adup) from pBCSK−, FDC in iron-depleted cation-adjusted MH broth, mode of triplicate
Protocol: as §1, §2

[4] = test system: ADC-33 in DH10B Escherichia coli; test: MIC by broth microdilution, ADC-33 in DH10B E. coli; type: cell-based; settings: DH10B E. coli expressing ADC-33 (Adup) from pBCSK−, FDC in iron-depleted cation-adjusted MH broth, mode of triplicate
Protocol: as §1, §2

[5] = test system: DH10B Escherichia coli pBCSK− no insert; test: MIC by broth microdilution, DH10B E. coli with pBCSK− no insert; type: cell-based; settings: DH10B E. coli with pBCSK− no insert (control strain), FDC in iron-depleted cation-adjusted MH broth
Protocol: as §1, §2

DH10B alone = test: MIC by broth microdilution, DH10B alone; type: cell-based; settings: Escherichia coli; DH10B alone (control strain); FDC in iron-depleted cation-adjusted MH broth
Protocol: as §1, §2

ADC-33 [6] = target: T1, ADC-33 (Acinetobacter baumannii, UniProt A7Y407); test: Steady-state hydrolysis kinetics, ADC-33; type: biochemical
Protocol: Steady-state kinetic parameters were determined by combining pure enzyme with antibiotic substrates in 50 mM NaH2PO4, pH 7.4, at room temperature. Changes in absorbance were measured on the Cary 60 UV−Vis spectrophotometer (Agilent Technologies) and converted to velocity using the change in extinction coefficient specific to nitrocefin (NCF) (ε482 = 17,400 M^−1·cm^−1), CAZ (ε260 8,660 M^−1·cm^−1), and cefiderocol (ε259 9,430 M^−1·cm^−1). The concentration of enzyme ranged from 0.1 to 1.0 µM, and all kinetic experiments were performed at least in triplicate. Initial velocities were fitted to the Michaelis-Menten equation, yielding kcat and KM values. The standard error for kcat/KM values was generated by factoring in the larger of the proportional standard errors for the individual kcat value and the KM value. For ADC/substrate combinations in which the KM was too large to accurately determine both kcat and KM values, the initial velocities at kcat/KM values were calculated from linear fits of vo in low [S] ranges (<0.08 * KM).

ADC-143 = ADC-143 (Acinetobacter baumannii, UniProt Q6DRA1, Q144K, form not given); test: Competition kinetics with nitrocefin (Ki), ADC-143; type: biochemical; settings: 3 min pre-incubation, Cheng-Prusoff corrected
Protocol: (§3) For inhibition kinetics, utilizing NCF as a colorimetric substrate of ADCs, the inhibition constant (Ki) of CAZ and FDC with ADCs was determined using competition kinetics as previously described ([5]). After a 3 min pre-incubation of the enzyme (2 nM) with increasing concentration of the inhibitor, measurements of the initial velocities were performed with the addition of 100–200 µM NCF (twofold of the experimentally determined KM value). To determine the average velocities (v0), data from three experiments were fit to the followingequation: […]
(§4) where vu represents the NCF uninhibited velocity and IC50 represents the inhibitor concentration that results in a 50% reduction of vu. The Ki value was corrected for the NCF affinity (KM values for each ADC) with the Cheng-Prusoff ([5]) equation: […]
(§5) The standard error for Ki values was generated by factoring in the larger of the proportional standard errors for the individual IC50 value and the KM -NCF value.

ADC-217 = ADC-217 (Acinetobacter baumannii, UniProt Q6DRA1, V286E, form not given); test: Competition kinetics with nitrocefin (Ki), ADC-217; type: biochemical; settings: 3 min pre-incubation, Cheng-Prusoff corrected
Protocol: as §3, §4, §5

ADC-33 [7] = target: T1, ADC-33; test: Timed electrospray ionization mass spectrometry of acylated adducts, ADC-33; type: binding; settings: ADC-33, incubation 30 s–1 h; enzyme:substrate 1:25
Protocol: β-Lactamase (5 µg) was incubated with substrate at a molar ratio of 1:25 (FDC, CAZ, meropenem [MEM]) in sterile 10 mM PBS, pH 7.4, for a total reaction volume of 20 µL (t = 30 s, 1 min, 15 min, 30 min, 1 h, 2 h, and 24 h). Reactions were quenched with 1% acetonitrile and 0.1% formic acid. Samples were analyzed using Q-TOF Waters Synapt-G2-Si and a Waters Acquity ultrapressure liquid chromatography BEH C18 column (1.7 µm […]; 2.1 × 50 mm). MassLynx v.4.1 was used to deconvolute protein peaks. The tune settings for each data run were as follows: capillary voltage at 3.5 kV, sampling cone at 35, source offset at 35, source temperature 100°C, desolvation temperature 500°C, cone gas at 100 L/h, desolvation gas at 800 L/h, and nebulizer bar at 6.0. Mobile phase A was 0.1% formic acid-water. Mobile phase B was 0.1% formic acid-acetonitrile. The mass accuracy for this system is ±5 Da. Mass spectrometry experiments were performed once over a range of time points.

ADC-30 = ADC-30 (Acinetobacter baumannii, UniProt A7XM81); test: Thermal denaturation by circular dichroism, ADC-30; type: binding; settings: ADC-30 12 µM, 1 mM antibiotic, PBS pH 7.4
Protocol: For thermal denaturation, protein samples were monitored for helical content by circular dichroism in the far-UV region at 210 and 220 nm using a Jasco J-815 spectrometer (Easton, MD) with a Peltier-effect temperature controller, as previously described ([41]). Enzyme concentrations were 12 µM in phosphate-buffered saline (PBS) pH 7.4. The thermodynamic stability of apoADC-30 and ADC-33, and with 1 mM FDC and CAZ, was determined from equilibrium unfolding curves. With the assumption of a reversible two-state transition, we determined the Tm at the midpoint of equilibrium folding. Thermal denaturation experiments were done in duplicate under the same conditions, with each data point representing the average of three successive scans, and the Tm values are consistent with ±1°C variation.

ADC-33 [8] = target: T1, ADC-33; settings: hydrolysis by ADC-33; previously determined; cited from earlier work

CC(C)(O/N=C(\C(=O)N[C@@H]1C(=O)N2C(C(=O)[O-])=C(C[n+]3ccccc3)CS[C@H]12)c1csc(N)n1)C(=O)O [CAZ, ceftazidime]
MIC [1]: 64 µg/mL (≈ 117 µM) | MIC [2]: 64 µg/mL (≈ 117 µM) | MIC [3]: 256 µg/mL (≈ 468 µM) | MIC [4]: 1020 µg/mL (≈ 1870 µM) | MIC [5]: 0.25 µg/mL (≈ 0.457 µM) | MIC (DH10B alone): 0.5 µg/mL (≈ 0.915 µM) | fold higher kcat/KM for CAZ versus FDC (ADC-33 [6]): ~ 10 fold | Ki (ADC-143): 47.8 ± 3.34 µM | Ki (ADC-217): 0.26 ± 0.014 µM | formation of stable acyl-enzyme adduct (ADC-33 [7]): did not form a stable acyl-enzyme adduct | change of Tm of the β-lactamase on addition of antibiotic (ADC-30): does not alter the Tm | kcat (ADC-33 [8]): 3.71 s⁻¹
